From US4379917A, “6"-(Substituted)-apramycin antibiotic derivatives and intermediates and starting materials therefor” (Eli Lilly and Company, priority 1981, dated 1983)
≈ marks a conversion by molar mass, not a printed value. Like-named read-outs stand apart in the source and are kept apart here.

Key:
Format in all cases: cell-based
[1] = test system: Pseudomonas aeruginosa X48; assay: MIC by standard agar dilution test
[2] = test system: Pseudomonas aeruginosa X528; assay: MIC by standard agar dilution test
[3] = test system: Pseudomonas aeruginosa X239; assay: MIC by standard agar dilution test
[4] = test system: Pseudomonas aeruginosa Ps9; assay: MIC by standard agar dilution test
[5] = test system: Pseudomonas aeruginosa Ps15; assay: MIC by standard agar dilution test
[6] = test system: Pseudomonas aeruginosa Ps25; assay: MIC by standard agar dilution test
[7] = test system: Pseudomonas aeruginosa 4276; assay: MIC by standard agar dilution test
[8] = test system: Pseudomonas aeruginosa PI23; assay: MIC by standard agar dilution test
[9] = test system: Pseudomonas aeruginosa SF-2; assay: MIC by standard agar dilution test
Serratia marcescens SE2 = assay: MIC by standard agar dilution test; conditions: SE2, Table 1, agar dilution, read-out: Minimum Inhibitory Concentration
Serratia marcescens X99 = assay: MIC by standard agar dilution test
Serratia marcescens SE3 = assay: MIC by standard agar dilution test
[10] = test system: Enterobacter aerogenes EB6; assay: MIC by standard agar dilution test; conditions: Klebsiella aerogenes
[11] = test system: Enterobacter cloacae EN453; assay: MIC by standard agar dilution test; conditions: EN453, Table 1, agar dilution, read-out: Minimum Inhibitory Concentration
[12] = test system: Enterobacter cloacae EB24; assay: MIC by standard agar dilution test
Proteus morganii PR1 = assay: MIC by standard agar dilution test; conditions: Morganella morganii, PR1; Table 1; agar dilution; read-out: Minimum Inhibitory Concentration
Proteus morganii PR2 = assay: MIC by standard agar dilution test; conditions: Morganella morganii, PR2; Table 1; agar dilution; read-out: Minimum Inhibitory Concentration
Proteus inconstans PV25 = assay: MIC by standard agar dilution test; conditions: Providencia alcalifaciens, PV25; Table 1; agar dilution; read-out: Minimum Inhibitory Concentration
[13] = test system: Klebsiella pneumoniae KL2; assay: MIC by standard agar dilution test; conditions: KL2, Table 1, agar dilution, read-out: Minimum Inhibitory Concentration
[14] = test system: Enterobacter aerogenes EB17; assay: MIC by standard agar dilution test; conditions: Klebsiella aerogenes, EB17, read-out: Minimum Inhibitory Concentration
Proteus morganii PR15 = assay: MIC by standard agar dilution test; conditions: Morganella morganii, PR15; Table II; agar dilution; read-out: Minimum Inhibitory Concentration
[15] = test system: Klebsiella pneumoniae KL14; assay: MIC by standard agar dilution test; conditions: KL14, read-out: Minimum Inhibitory Concentration
[16] = test system: Staphylococcus aureus 3055; assay: MIC by standard agar dilution test
[17] = test system: Staphylococcus aureus 3074; assay: MIC by standard agar dilution test; conditions: Table II, read-out: Minimum Inhibitory Concentration
Description: (§1) The antibacterial activity of the antibiotic compounds of this invention is illustrated by the following in vitro and in vivo test data obtained with representative compounds. In Tables I and II the minimum inhibitory concentration (MIC) for representative compounds against a wide range of gram-positive and gram-negative bacteria is presented. The MIC values were obtained by the standard agar dilution test.

[18] = test system: Streptococcus faecalis X66; assay: MIC by standard agar dilution test; conditions: Enterococcus faecalis, X66; Table II; agar dilution; read-out: Minimum Inhibitory Concentration
Salmonella typhosa SA12 = assay: MIC by standard agar dilution test; conditions: Salmonella enterica, read-out: Minimum Inhibitory Concentration
Escherichia coli EC14 = assay: MIC by standard agar dilution test; conditions: EC14, Table II, agar dilution, read-out: Minimum Inhibitory Concentration
[19] = test system: Citrobacter freundii CF17; assay: MIC by standard agar dilution test
[20] = test system: Bordetella bronchiseptica 16; assay: MIC by standard agar dilution test
Salmonella typhimurium = assay: MIC by standard agar dilution test; conditions: Salmonella enterica, read-out: Minimum Inhibitory Concentration
[21] = test system: Pseudomonas solanacearum X185; assay: microbe, parasite or virus in culture; conditions: Ralstonia solanacearum, X185, read-out: Minimum Inhibitory Concentration
Erwinia amylovora = assay: MIC by standard agar dilution test; conditions: Table II, read-out: Minimum Inhibitory Concentration
Description: as §1

[22] = SE3, Table 1, read-out: Minimum Inhibitory Concentration

`CN[C@@H]1[C@@H](O[C@H]2O[C@H](COS(C)(=O)=O)[C@@H](N)[C@H](O)[C@H]2O)O[C@H]2C[C@@H](N)[C@@H](O[C@H]3[C@H](O)[C@@H](O)[C@H](N)C[C@@H]3N)O[C@@H]2[C@@H]1O` [Test Compound 1, 6"-O-(Methanesulfonyl)apramycin] was tested, and the MIC ([1]; X48, Table 1, agar dilution, read-out: Minimum Inhibitory Concentration) was 128 µg/mL (≈ 207 µM), the MIC ([2]; X528, Table 1, agar dilution, read-out: Minimum Inhibitory Concentration) was 128 µg/mL (≈ 207 µM) and the MIC ([3]; X239, Table 1, read-out: Minimum Inhibitory Concentration) was 128 µg/mL (≈ 207 µM). The MIC ([3]; X239, read-out: Minimum Inhibitory Concentration, Table II) was 4 µg/mL (≈ 6.48 µM), the MIC ([4]; PS9, Table 1, agar dilution, read-out: Minimum Inhibitory Concentration) was > 128 µg/mL and the MIC ([5]; PS15, Table 1, agar dilution, read-out: Minimum Inhibitory Concentration) was 128 µg/mL (≈ 207 µM). The MIC ([6]; PS25, Table 1, agar dilution, read-out: Minimum Inhibitory Concentration) was 64 µg/mL (≈ 104 µM), the MIC ([7]; Pseudomonas aeruginosa, 4276, Table 1, agar dilution, read-out: Minimum Inhibitory Concentration) was > 128 µg/mL and the MIC ([8]; PI23, Table 1, agar dilution, read-out: Minimum Inhibitory Concentration) was > 128 µg/mL. It also gave an MIC ([9]; SF2, Table 1, agar dilution, read-out: Minimum Inhibitory Concentration) of 128 µg/mL (≈ 207 µM), an MIC (Serratia marcescens SE2) of 8 µg/mL (≈ 13 µM) and an MIC (Serratia marcescens X99; X99, read-out: Minimum Inhibitory Concentration) of 4 µg/mL (≈ 6.48 µM). It also gave an MIC (Serratia marcescens SE3; [22]) of 8 µg/mL (≈ 13 µM), an MIC (Serratia marcescens SE3; SE3, Table II, read-out: Minimum Inhibitory Concentration) of 16 µg/mL (≈ 25.9 µM) and an MIC ([10]; EB6, read-out: Minimum Inhibitory Concentration) of 4 µg/mL (≈ 6.48 µM). For the same molecule, the MIC [11] was 8 µg/mL (≈ 13 µM), the MIC ([12]; EB24, read-out: Minimum Inhibitory Concentration) was 4 µg/mL (≈ 6.48 µM) and the MIC (Proteus morganii PR1) was 8 µg/mL (≈ 13 µM). The MIC (Proteus morganii PR2) was 32 µg/mL (≈ 51.8 µM), the MIC (Proteus inconstans PV25) was 8 µg/mL (≈ 13 µM) and the MIC [13] was 8 µg/mL (≈ 13 µM). It also gave an MIC [14] of 4 µg/mL (≈ 6.48 µM), an MIC (Proteus morganii PR15) of 32 µg/mL (≈ 51.8 µM) and an MIC [15] of 4 µg/mL (≈ 6.48 µM). For the same molecule, the MIC ([16]; Staphylococcus aureus, 3055, read-out: Minimum Inhibitory Concentration) was 2 µg/mL (≈ 3.24 µM), the MIC [17] was 4 µg/mL (≈ 6.48 µM) and the MIC [18] was 32 µg/mL (≈ 51.8 µM). For the same molecule, the MIC (Salmonella typhosa SA12) was 4 µg/mL (≈ 6.48 µM), the MIC (Escherichia coli EC14) was 8 µg/mL (≈ 13 µM) and the MIC ([19]; CF17, read-out: Minimum Inhibitory Concentration) was 4 µg/mL (≈ 6.48 µM). It also gave an MIC ([20]; Bordetella bronchiseptica, 16, Table II, agar dilution, read-out: Minimum Inhibitory Concentration) of 16 µg/mL (≈ 25.9 µM), an MIC (Salmonella typhimurium) of 4 µg/mL (≈ 6.48 µM) and an MIC [21] of 1 µg/mL (≈ 1.62 µM).

For `CN[C@@H]1[C@@H](O[C@H]2O[C@H](COS(=O)(=O)c3ccc(C)cc3)[C@@H](N)[C@H](O)[C@H]2O)O[C@H]2C[C@@H](N)[C@@H](O[C@H]3[C@H](O)[C@@H](O)[C@H](N)C[C@@H]3N)O[C@@H]2[C@@H]1O` [Test Compound 2, 6"-O-(Para-toluenesulfonyl)apramycin], the MIC ([1]; X48, read-out: Minimum Inhibitory Concentration) was > 128 µg/mL, the MIC ([2]; X528, read-out: Minimum Inhibitory Concentration) was > 128 µg/mL and the MIC ([3]; X239, Table II, read-out: Minimum Inhibitory Concentration) was 16 µg/mL (≈ 23.1 µM). For the same molecule, the MIC ([3]; X239, read-out: Minimum Inhibitory Concentration, Table 1) was > 128 µg/mL, the MIC ([4]; PS9, read-out: Minimum Inhibitory Concentration) was > 128 µg/mL and the MIC ([5]; PS15, read-out: Minimum Inhibitory Concentration) was > 128 µg/mL. For the same molecule, the MIC ([6]; PS25, read-out: Minimum Inhibitory Concentration) was > 128 µg/mL, the MIC ([7]; Pseudomonas aeruginosa, 4276, read-out: Minimum Inhibitory Concentration) was > 128 µg/mL and the MIC ([8]; PI23, read-out: Minimum Inhibitory Concentration) was > 128 µg/mL. For the same molecule, the MIC ([9]; SF2, read-out: Minimum Inhibitory Concentration) was > 128 µg/mL, the MIC (Serratia marcescens SE2) was 16 µg/mL (≈ 23.1 µM) and the MIC (Serratia marcescens X99; X99, Table 1, agar dilution, read-out: Minimum Inhibitory Concentration) was 16 µg/mL (≈ 23.1 µM). It also gave an MIC (Serratia marcescens SE3; [22]) of 16 µg/mL (≈ 23.1 µM), an MIC (Serratia marcescens SE3; SE3, read-out: Minimum Inhibitory Concentration, Table II) of 32 µg/mL (≈ 46.1 µM) and an MIC ([10]; EB6, Table 1, agar dilution, read-out: Minimum Inhibitory Concentration) of 16 µg/mL (≈ 23.1 µM). For the same molecule, the MIC [11] was 16 µg/mL (≈ 23.1 µM), the MIC ([12]; EB24, Table 1, agar dilution, read-out: Minimum Inhibitory Concentration) was 16 µg/mL (≈ 23.1 µM) and the MIC (Proteus morganii PR1) was 16 µg/mL (≈ 23.1 µM). For the same molecule, the MIC (Proteus morganii PR2) was 16 µg/mL (≈ 23.1 µM), the MIC (Proteus inconstans PV25) was 16 µg/mL (≈ 23.1 µM) and the MIC [13] was 16 µg/mL (≈ 23.1 µM). The MIC (Proteus morganii PR15) was 16 µg/mL (≈ 23.1 µM), the MIC [15] was 2 µg/mL (≈ 2.88 µM) and the MIC ([16]; Staphylococcus aureus, 3055, Table II, agar dilution, read-out: Minimum Inhibitory Concentration) was < 0.5 µg/mL. It also gave an MIC (Erwinia amylovora) of 2 µg/mL (≈ 2.88 µM), an MIC [17] of 2 µg/mL (≈ 2.88 µM) and an MIC [18] of 16 µg/mL (≈ 23.1 µM). For the same molecule, the MIC (Salmonella typhosa SA12) was 1 µg/mL (≈ 1.44 µM), the MIC (Escherichia coli EC14) was 4 µg/mL (≈ 5.77 µM) and the MIC ([19]; CF17, Table II, agar dilution, read-out: Minimum Inhibitory Concentration) was 4 µg/mL (≈ 5.77 µM). The MIC ([20]; Bordetella bronchiseptica, 16, read-out: Minimum Inhibitory Concentration) was 64 µg/mL (≈ 92.2 µM), the MIC (Salmonella typhimurium; Table II, agar dilution) was 4 µg/mL (≈ 5.77 µM) and the MIC [21] was 1 µg/mL (≈ 1.44 µM).
